One assay has as its target CAMKK2 (Homo sapiens, UniProt Q96RR4). The assay can be described thus: kinase binding screen (kinase-tagged T7 phage, qPCR), % Ctrl. The essentials: (§1)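 Competition binding: kinase-tagged T7 phage (grown in BL21-derived E. coli, lysed at 32° C) incubated with immobilized ligand on biotin-blocked beads plus test compound; bound kinase in eluates quantified by qPCR. Compounds tested at a single set concentration, added from 40× DMSO stocks.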

A further assay deals with T1, MAP3K15 (Homo sapiens, UniProt Q6ZN16).
T1 sequence (Q6ZN16 1-1313): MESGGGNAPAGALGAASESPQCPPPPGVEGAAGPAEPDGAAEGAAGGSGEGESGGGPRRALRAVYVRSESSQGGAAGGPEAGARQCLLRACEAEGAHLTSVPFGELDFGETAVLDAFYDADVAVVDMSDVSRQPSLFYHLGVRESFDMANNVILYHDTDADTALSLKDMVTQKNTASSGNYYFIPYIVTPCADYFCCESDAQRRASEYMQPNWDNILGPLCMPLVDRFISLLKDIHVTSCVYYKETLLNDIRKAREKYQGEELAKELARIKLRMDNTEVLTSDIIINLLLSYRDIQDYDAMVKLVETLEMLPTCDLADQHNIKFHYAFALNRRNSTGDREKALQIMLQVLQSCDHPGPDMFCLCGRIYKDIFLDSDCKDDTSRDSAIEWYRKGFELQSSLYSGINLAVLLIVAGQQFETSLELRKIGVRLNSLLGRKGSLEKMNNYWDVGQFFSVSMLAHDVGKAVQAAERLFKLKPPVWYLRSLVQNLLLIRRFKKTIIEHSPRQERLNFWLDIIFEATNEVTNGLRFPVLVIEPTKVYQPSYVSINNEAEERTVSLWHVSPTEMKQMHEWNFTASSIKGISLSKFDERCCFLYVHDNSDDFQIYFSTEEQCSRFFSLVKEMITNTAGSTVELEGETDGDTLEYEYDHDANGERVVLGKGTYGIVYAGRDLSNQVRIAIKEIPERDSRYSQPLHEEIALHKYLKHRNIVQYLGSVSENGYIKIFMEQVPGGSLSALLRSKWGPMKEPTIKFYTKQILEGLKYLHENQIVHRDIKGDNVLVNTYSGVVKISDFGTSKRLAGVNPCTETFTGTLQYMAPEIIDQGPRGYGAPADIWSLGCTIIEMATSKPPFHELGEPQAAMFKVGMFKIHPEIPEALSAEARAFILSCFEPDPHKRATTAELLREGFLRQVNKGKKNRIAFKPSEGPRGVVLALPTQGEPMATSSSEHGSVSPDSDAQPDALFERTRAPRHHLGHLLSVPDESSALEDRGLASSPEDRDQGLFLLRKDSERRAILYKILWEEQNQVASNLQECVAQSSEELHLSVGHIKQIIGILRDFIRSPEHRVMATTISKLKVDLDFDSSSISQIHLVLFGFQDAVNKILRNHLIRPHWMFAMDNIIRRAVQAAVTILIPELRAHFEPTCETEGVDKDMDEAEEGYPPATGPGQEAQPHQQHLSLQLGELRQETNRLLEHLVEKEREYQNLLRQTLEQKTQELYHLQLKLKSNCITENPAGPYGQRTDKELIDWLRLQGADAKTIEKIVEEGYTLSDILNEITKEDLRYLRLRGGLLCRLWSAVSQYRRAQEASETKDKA
Described as above. The essentials: as §1

Chain of CAMKK2 (Q96RR4 whole entry): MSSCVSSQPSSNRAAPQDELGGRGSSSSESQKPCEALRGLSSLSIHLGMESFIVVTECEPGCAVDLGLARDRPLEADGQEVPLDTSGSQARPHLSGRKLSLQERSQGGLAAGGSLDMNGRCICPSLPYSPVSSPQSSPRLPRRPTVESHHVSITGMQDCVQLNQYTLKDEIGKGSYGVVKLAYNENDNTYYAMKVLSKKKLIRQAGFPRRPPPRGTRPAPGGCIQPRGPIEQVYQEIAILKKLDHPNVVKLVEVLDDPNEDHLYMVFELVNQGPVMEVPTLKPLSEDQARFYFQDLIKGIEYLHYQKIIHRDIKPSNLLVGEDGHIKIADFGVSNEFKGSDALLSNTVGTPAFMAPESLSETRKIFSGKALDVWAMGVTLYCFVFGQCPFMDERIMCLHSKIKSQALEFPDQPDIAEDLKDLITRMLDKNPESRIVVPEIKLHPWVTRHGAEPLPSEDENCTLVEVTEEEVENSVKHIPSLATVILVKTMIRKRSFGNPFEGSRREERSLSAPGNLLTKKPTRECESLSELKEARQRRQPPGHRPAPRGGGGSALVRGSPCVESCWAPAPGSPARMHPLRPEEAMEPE

Consider `Nc1nc2c(-c3ccccn3)nccc2[nH]1` [drawing 35, 4-(pyrid-2-yl)-1H-imidazo[4,5-c]pyridin-2-amine], for which the remaining activity at 1 µM on CAMKK2 came to 35%; at MAP3K15 it was 40%.

As for `Nc1nc2c(-c3cc(Br)c(Br)[nH]3)nccc2[nH]1` [Ageladine A, ageladine A, reference compound], the remaining activity at 1 µM worked out at 90% at CAMKK2 and 100% on MAP3K15. Also, the remaining activity at 10 µM at CAMKK2 (10 μM) is 83%; at MAP3K15 (10 μM), 78%.

`Nc1nc2c(-c3cnc4ccccc4c3)nccc2[nH]1` [drawing 36, 4-(quinolin-3-yl)-1H-imidazo[4,5-c]pyridin-2-amine]: the remaining activity at 1 µM on CAMKK2 was 100%; on MAP3K15, 94%.

For orientation: remaining activity means the signal under treatment as a percentage of the control signal. A lower remaining activity goes with a large loss of activity.
